In patent publication US20240116985A1, “STAPLED PEPTIDES AND METHODS THEREOF” (priority 2020, published 2024) one finds IC50 data, which are given here for 13 compounds.

Test [1] has as its target T1, beta-catenin/TCF4 engagement (Homo sapiens, UniProt P35222).
T1 construct: expressed in transfected cells; host or cells: HEK293
T1 sequence (P35222 1-781): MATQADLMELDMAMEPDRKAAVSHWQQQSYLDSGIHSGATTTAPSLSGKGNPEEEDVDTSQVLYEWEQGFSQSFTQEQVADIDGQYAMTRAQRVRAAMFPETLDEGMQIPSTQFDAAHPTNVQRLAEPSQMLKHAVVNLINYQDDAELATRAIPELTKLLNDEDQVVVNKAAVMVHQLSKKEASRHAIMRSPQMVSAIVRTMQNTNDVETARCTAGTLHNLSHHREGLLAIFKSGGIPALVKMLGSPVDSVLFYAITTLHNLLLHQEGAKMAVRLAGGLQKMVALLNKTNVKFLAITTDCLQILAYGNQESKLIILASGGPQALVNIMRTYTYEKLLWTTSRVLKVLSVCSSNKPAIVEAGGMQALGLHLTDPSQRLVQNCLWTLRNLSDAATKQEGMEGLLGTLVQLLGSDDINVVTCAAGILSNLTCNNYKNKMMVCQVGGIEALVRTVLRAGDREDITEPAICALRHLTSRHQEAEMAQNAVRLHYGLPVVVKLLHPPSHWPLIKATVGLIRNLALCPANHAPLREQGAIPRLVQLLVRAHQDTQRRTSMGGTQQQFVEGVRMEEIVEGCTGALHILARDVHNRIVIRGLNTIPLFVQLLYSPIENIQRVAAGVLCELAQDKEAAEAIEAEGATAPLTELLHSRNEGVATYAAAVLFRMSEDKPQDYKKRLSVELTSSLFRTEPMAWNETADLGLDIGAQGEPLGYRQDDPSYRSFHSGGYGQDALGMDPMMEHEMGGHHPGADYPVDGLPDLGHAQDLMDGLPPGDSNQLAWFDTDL
Kind of test: Nano-BRET target engagement assay (B-cat-Halo & TCF4-Luc in HEK293 cells). Type of test: cell-based. The settings on record: absolute IC50; read-out: NanoBRET Abs IC50.

Test [2] concerns the target T2, full-length beta-Catenin (Uniprot ID P35222) (Homo sapiens, UniProt P35222).
T2 construct: 10 nM full-length beta-Catenin (Uniprot ID P35222)
T2 sequence (P35222 1-781): T1 sequence (P35222 1-781)
Kind of test: Fluorescence polarization IC50 (beta-catenin / 5FAM-TCF4 10-53 competition). The settings on record: fluorescence polarization; read-out: beta-Catenin FP IC50. Type of test: binding. A general note: In fluorescence polarisation assays a small probe gives low polarisation when free and higher when bound to something large.

For orientation: IC50 means the concentration at which inhibition is half-maximal. Take `CC(=O)N1CCC[C@]12CC=CCCCC1(CCCC=CCCCOC(=O)N3CC[C@@](C(=O)N[C@@H](Cc4ccsc4)C(=O)N[C@@H](Cc4csc5ccccc45)C(=O)N[C@@H](C)C(N)=O)(C3)NC(=O)[C@H](CC(C)C)NC(=O)[C@H](Cc3ccccc3)NC(=O)[C@H](C)NC(=O)[C@H](CCC(N)=O)NC(=O)[C@H](Cc3cc(C(=O)O)cc(C(F)(F)F)c3)NC(=O)[C@H](CC(=O)O)NC1=O)NC(=O)[C@H](CC(C)(C)C)NC(=O)[C@H](CC(=O)O)NC2=O` (stereo partly drawn) [I-2211, Ac-PL3-Asp-Npg-B5-Asp-5F3Me3COOHF-Gln-Ala-Phe-Leu-PyrS2-3Thi-BztA-Ala-NH2]: the IC50 stood at 12.9 µM in test [1] and 23 nM in test [2].

Turning to `CC(=O)N1CCC[C@]12CC=CCCCC1(CCCC=CCCCOC(=O)N3CC[C@@](C(=O)N[C@@H](Cc4ccsc4)C(=O)N[C@@H](Cc4ccc(Cl)c(Cl)c4)C(=O)N[C@@H](CCC(N)=O)C(N)=O)(C3)NC(=O)[C@H](CC(C)C)NC(=O)[C@H](Cc3ccccc3)NC(=O)[C@H](C)NC(=O)[C@H](C)NC(=O)[C@H](Cc3cccc(C(=O)O)c3)NC(=O)[C@H](CC(=O)O)NC1=O)NC(=O)[C@H](CC(C)(C)C)NC(=O)[C@H](CC(=O)O)NC2=O` (stereo partly drawn) [I-2216, Ac-PL3-Asp-Npg-B5-Asp-3COOHF-Ala-Ala-Phe-Leu-PyrS2-3Thi-34C1F-Gln-NH2], the IC50 worked out at 3.4 µM in test [1] and 7 nM in test [2].

As for `CC(=O)N1CCC[C@]12CC=CCCCC1(CCCC=CCCCOC(=O)N3CC[C@@](C(=O)N[C@@H](Cc4ccsc4)C(=O)N[C@@H](Cc4ccc(Cl)c(Cl)c4)C(=O)N[C@@H](C)C(N)=O)(C3)NC(=O)[C@H](C(C)C)NC(=O)[C@H](Cc3ccccc3)NC(=O)[C@H](C)NC(=O)[C@H](CCC(N)=O)NC(=O)[C@H](Cc3cccc(C(=O)O)c3)NC(=O)[C@H](CC(=O)O)NC1=O)NC(=O)[C@H](CC(C)(C)C)NC(=O)[C@H](CC(=O)O)NC2=O` (stereo partly drawn) [I-2217, Ac-PL3-Asp-Npg-B5-Asp-3COOHF-Gln-Ala-Phe-Val-PyrS2-3Thi-34C1F-Ala-NH2], the IC50 turned out to be 2.1 µM in test [1] and 6 nM in test [2].

For the compound `CC(=O)N1CCC[C@]12CC=CCCCC1(CCCC=CCCCOC(=O)N3CC[C@@](C(=O)N[C@@H](Cc4ccccc4C(F)(F)F)C(=O)N[C@@H](Cc4ccc(Cl)c(Cl)c4)C(=O)N[C@@H](CO)C(N)=O)(C3)NC(=O)[C@H](CC(C)C)NC(=O)[C@H](Cc3ccccc3)NC(=O)[C@H](C)NC(=O)[C@H](C)NC(=O)[C@H](Cc3cccc(C(=O)O)c3)NC(=O)[C@H](CC(=O)O)NC1=O)NC(=O)[C@H](CC(C)(C)C)NC(=O)[C@H](CC(=O)O)NC2=O` (stereo partly drawn) [I-2218, Ac-PL3-Asp-Npg-B5-Asp-3COOHF-Ala-Ala-Phe-Leu-PyrS2-2F3MeF-34C1F-Ser-NH2], the IC50 was 5.1 µM in test [1] and 34 nM in test [2].

On to `CC(=O)N1CCC[C@]12CC=CCCCC1(CCCC=CCCCOC(=O)N3CC[C@@](C(=O)N[C@@H](Cc4ccccc4C(F)(F)F)C(=O)N[C@@H](Cc4ccc(Cl)c(Cl)c4)C(=O)N[C@@H](C)C(N)=O)(C3)NC(=O)[C@H](CC(C)C)NC(=O)[C@H](Cc3ccccc3)NC(=O)[C@H](C)NC(=O)[C@H](CCC(N)=O)NC(=O)[C@H](Cc3cccc(C(=O)O)c3)NC(=O)[C@H](CC(=O)O)NC1=O)NC(=O)[C@H](CC(C)(C)C)NC(=O)[C@H](CC(=O)O)NC2=O` (stereo partly drawn) [I-2219, Ac-PL3-Asp-Npg-B5-Asp-3COOHF-Gln-Ala-Phe-Leu-PyrS2-2F3MeF-34C1F-Ala-NH2], for which the IC50 came to 2.7 µM in test [1] and 21 nM in test [2].

Turning to `CC(=O)N1CCC[C@]12CC=CCCCC1(CCCC=CCCCOC(=O)N3CC[C@@](C(=O)N[C@@H](Cc4ccsc4)C(=O)N[C@@H](Cc4ccc(Cl)cc4)C(=O)N[C@@H](CCC(N)=O)C(N)=O)(C3)NC(=O)[C@H](CC(C)C)NC(=O)[C@H](Cc3ccccc3)NC(=O)[C@H](C)NC(=O)[C@H](C)NC(=O)[C@H](Cc3cccc(C(=O)O)c3)NC(=O)[C@H](CC(=O)O)NC1=O)NC(=O)[C@H](CC(C)(C)C)NC(=O)[C@H](CC(=O)O)NC2=O` (stereo partly drawn) [I-2220, Ac-PL3-Asp-Npg-B5-Asp-3COOHF-Ala-Ala-Phe-Leu-PyrS2-3Thi-4C1F-Gln-NH2], the IC50 was found to be 16.3 µM in test [1] and 12 nM in test [2].

`CC(=O)N1CCC[C@]12CC=CCCCC1(CCCC=CCCCOC(=O)N3CC[C@@](C(=O)N[C@@H](Cc4ccsc4)C(=O)N[C@@H](Cc4ccc(Cl)cc4)C(=O)N[C@@H](C)C(N)=O)(C3)NC(=O)[C@H](C(C)C)NC(=O)[C@H](Cc3ccccc3)NC(=O)[C@H](C)NC(=O)[C@H](CCC(N)=O)NC(=O)[C@H](Cc3cccc(C(=O)O)c3)NC(=O)[C@H](CC(=O)O)NC1=O)NC(=O)[C@H](CC(C)(C)C)NC(=O)[C@H](CC(=O)O)NC2=O` (stereo partly drawn) [I-2221, Ac-PL3-Asp-Npg-B5-Asp-3COOHF-Gln-Ala-Phe-Val-PyrS2-3Thi-4C1F-Ala-NH2]: the IC50 is 5 µM in test [1] and 11 nM in test [2].

For `CC(=O)N1CCC[C@]12CC=CCCCC1(CCCC=CCCCOC(=O)N3CC[C@@](C(=O)N[C@@H](Cc4ccccc4C(F)(F)F)C(=O)N[C@@H](Cc4ccc(Cl)cc4)C(=O)N[C@@H](CO)C(N)=O)(C3)NC(=O)[C@H](CC(C)C)NC(=O)[C@H](Cc3ccccc3)NC(=O)[C@H](C)NC(=O)[C@H](C)NC(=O)[C@H](Cc3cccc(C(=O)O)c3)NC(=O)[C@H](CC(=O)O)NC1=O)NC(=O)[C@H](CC(C)(C)C)NC(=O)[C@H](CC(=O)O)NC2=O` (stereo partly drawn) [I-2222, Ac-PL3-Asp-Npg-B5-Asp-3COOHF-Ala-Ala-Phe-Leu-PyrS2-2F3MeF-4C1F-Ser-NH2], the IC50 stood at 11.7 µM in test [1] and 84 nM in test [2].

`CC(=O)N1CCC[C@]12CC=CCCCC1(CCCC=CCCCOC(=O)N3CC[C@@](C(=O)N[C@@H](Cc4ccccc4C(F)(F)F)C(=O)N[C@@H](Cc4ccc(Cl)cc4)C(=O)N[C@@H](C)C(N)=O)(C3)NC(=O)[C@H](CC(C)C)NC(=O)[C@H](Cc3ccccc3)NC(=O)[C@H](C)NC(=O)[C@H](CCC(N)=O)NC(=O)[C@H](Cc3cccc(C(=O)O)c3)NC(=O)[C@H](CC(=O)O)NC1=O)NC(=O)[C@H](CC(C)(C)C)NC(=O)[C@H](CC(=O)O)NC2=O` (stereo partly drawn) [I-2223, Ac-PL3-Asp-Npg-B5-Asp-3COOHF-Gln-Ala-Phe-Leu-PyrS2-2F3MeF-4C1F-Ala-NH2]: the IC50 in test [1] was found to be 9 µM; in test [2], 50 nM.

`CC(=O)N1CCC[C@]12CC=CCCCC1(CCCC=CCCCOC(=O)N3CC[C@@](C(=O)N[C@@H](Cc4ccsc4)C(=O)N[C@@H](Cc4cccc(Cl)c4)C(=O)N[C@@H](CCC(N)=O)C(N)=O)(C3)NC(=O)[C@H](CC(C)C)NC(=O)[C@H](Cc3ccccc3)NC(=O)[C@H](C)NC(=O)[C@H](C)NC(=O)[C@H](Cc3cccc(C(=O)O)c3)NC(=O)[C@H](CC(=O)O)NC1=O)NC(=O)[C@H](CC(C)(C)C)NC(=O)[C@H](CC(=O)O)NC2=O` (stereo partly drawn) [I-2224, Ac-PL3-Asp-Npg-B5-Asp-3COOHF-Ala-Ala-Phe-Leu-PyrS2-3Thi-3C1F-Gln-NH2]: the IC50 is 14.2 µM in test [1] and 14 nM in test [2].

For `CC(=O)N1CCC[C@]12CC=CCCCC1(CCCC=CCCCOC(=O)N3CC[C@@](C(=O)N[C@@H](Cc4ccsc4)C(=O)N[C@@H](Cc4cccc(Cl)c4)C(=O)N[C@@H](C)C(N)=O)(C3)NC(=O)[C@H](C(C)C)NC(=O)[C@H](Cc3ccccc3)NC(=O)[C@H](C)NC(=O)[C@H](CCC(N)=O)NC(=O)[C@H](Cc3cccc(C(=O)O)c3)NC(=O)[C@H](CC(=O)O)NC1=O)NC(=O)[C@H](CC(C)(C)C)NC(=O)[C@H](CC(=O)O)NC2=O` (stereo partly drawn) [I-2225, Ac-PL3-Asp-Npg-B5-Asp-3COOHF-Gln-Ala-Phe-Val-PyrS2-3Thi-3C1F-Ala-NH2], the IC50 was 7.8 µM in test [1] and 13 nM in test [2].

With `CC(=O)N1CCC[C@]12CC=CCCCC1(CCCC=CCCCOC(=O)N3CC[C@@](C(=O)N[C@@H](Cc4ccccc4C(F)(F)F)C(=O)N[C@@H](Cc4cccc(Cl)c4)C(=O)N[C@@H](CO)C(N)=O)(C3)NC(=O)[C@H](CC(C)C)NC(=O)[C@H](Cc3ccccc3)NC(=O)[C@H](C)NC(=O)[C@H](C)NC(=O)[C@H](Cc3cccc(C(=O)O)c3)NC(=O)[C@H](CC(=O)O)NC1=O)NC(=O)[C@H](CC(C)(C)C)NC(=O)[C@H](CC(=O)O)NC2=O` (stereo partly drawn) [I-2226, Ac-PL3-Asp-Npg-B5-Asp-3COOHF-Ala-Ala-Phe-Leu-PyrS2-2F3MeF-3C1F-Ser-NH2], the IC50 turned out to be 10.6 µM in test [1] and 97 nM in test [2].

As to `CC(=O)N1CCC[C@]12CC=CCCCC1(CCCC=CCCCOC(=O)N3CC[C@@](C(=O)N[C@@H](Cc4ccccc4C(F)(F)F)C(=O)N[C@@H](Cc4cccc(Cl)c4)C(=O)N[C@@H](C)C(N)=O)(C3)NC(=O)[C@H](CC(C)C)NC(=O)[C@H](Cc3ccccc3)NC(=O)[C@H](C)NC(=O)[C@H](CCC(N)=O)NC(=O)[C@H](Cc3cccc(C(=O)O)c3)NC(=O)[C@H](CC(=O)O)NC1=O)NC(=O)[C@H](CC(C)(C)C)NC(=O)[C@H](CC(=O)O)NC2=O` (stereo partly drawn) [I-2227, Ac-PL3-Asp-Npg-B5-Asp-3COOHF-Gln-Ala-Phe-Leu-PyrS2-2F3MeF-3C1F-Ala-NH2], the IC50 in test [1] was 6.3 µM; in test [2], 47 nM.
